Source: US10301629B2, “Structure, manufacturing and uses of human-derived cell-permeable peptides conjugated with specific biologically active cargo peptides” (priority 2013, dated 2019)

Test system: cytokine response to LPS
Test: Mouse endotoxin (LPS) challenge, peptide pretreatment 30 minutes prior, plasma cytokines
Conditions: peptide 500 micrograms per mouse, dexamethasone 3 mg/kg, PPL-002 p<0.01
Method: The ability of peptide pretreatment to inhibit the inflammatory cytokine response or stimulate the anti-inflammatory cytokine response to LPS was determined 2 hours after LPS injection (FIG. 10).
Peptides were dosed both i.p. and i.v. at 500 micrograms per mouse (10 mg/kg) 30 minutes prior to challenge by injection of endotoxin (LPS) at a dose of 50 micrograms/kg.

SMILES: C[C@@H]1C[C@H]2[C@@H]3CCC4=CC(=O)C=C[C@]4(C)[C@@]3(F)[C@@H](O)C[C@]2(C)[C@@]1(O)C(=O)CO [Dexamethasone, dexamethasone, reference compound]
- IL-10 level after LPS challenge, i.p. pretreatment: no effect
